Source: ChEMBL document CHEMBL1909046, “DrugMatrix in vitro pharmacology data”

What was measured:
[1] = biological target: T1, Alpha-2C adrenergic receptor (Homo sapiens, UniProt P18825); assay: DRUGMATRIX: Adrenergic Alpha-2C radioligand binding (ligand: [3H] MK-912); assay type: cell membranes, Sf9, Membrane
T1 sequence (P18825 whole entry): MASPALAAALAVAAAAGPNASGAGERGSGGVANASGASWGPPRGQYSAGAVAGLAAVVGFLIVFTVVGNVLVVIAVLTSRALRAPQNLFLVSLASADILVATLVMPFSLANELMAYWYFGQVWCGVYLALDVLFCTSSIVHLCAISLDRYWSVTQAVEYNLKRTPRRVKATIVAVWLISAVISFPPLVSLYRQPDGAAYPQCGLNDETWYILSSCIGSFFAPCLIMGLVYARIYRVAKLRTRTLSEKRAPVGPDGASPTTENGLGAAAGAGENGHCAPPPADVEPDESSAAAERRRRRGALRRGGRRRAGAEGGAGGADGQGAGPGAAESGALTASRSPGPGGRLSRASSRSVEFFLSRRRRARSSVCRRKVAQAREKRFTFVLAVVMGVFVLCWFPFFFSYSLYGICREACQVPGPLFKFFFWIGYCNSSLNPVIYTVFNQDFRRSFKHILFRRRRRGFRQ

[2] = DRUGMATRIX: Calcium Channel Type L, Benzothiazepine radioligand binding (ligand: [3H] Diltiazem); assay type: cell membranes, Rattus norvegicus, Wistar, Brain, Membrane; conditions: Not Active = under 50% inhibition at 10 µM
[3] = biological target: T2, C-C chemokine receptor type 4 (Homo sapiens, UniProt P51679); assay type: cell membranes, Chem-1, Membrane; conditions: chem-1; further: in other assays of this panel Not Active means under 50% inhibition at 10 µM
T2 sequence (P51679 whole entry): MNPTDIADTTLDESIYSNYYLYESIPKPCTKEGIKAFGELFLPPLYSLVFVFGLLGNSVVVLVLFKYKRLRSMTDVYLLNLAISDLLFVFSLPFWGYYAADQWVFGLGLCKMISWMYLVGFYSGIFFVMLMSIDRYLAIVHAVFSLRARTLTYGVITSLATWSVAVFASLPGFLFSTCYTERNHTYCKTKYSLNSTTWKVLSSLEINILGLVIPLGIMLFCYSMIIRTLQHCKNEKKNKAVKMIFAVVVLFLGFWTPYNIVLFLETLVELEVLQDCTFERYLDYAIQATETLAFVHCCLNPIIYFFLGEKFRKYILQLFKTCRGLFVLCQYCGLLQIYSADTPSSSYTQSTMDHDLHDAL

[4] = biological target: T3, Polyunsaturated fatty acid lipoxygenase ALOX15 (Oryctolagus cuniculus, UniProt P12530); assay: biochemical; assay type: tissue-based, Reticulocytes;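 further: inhibition of 15-lipoxygenase enzyme activity measured with linoleic acid as the substrate; in other assays of this panel Not Active means under 50% inhibition at 10 µM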
T3 sequence (P12530 whole entry): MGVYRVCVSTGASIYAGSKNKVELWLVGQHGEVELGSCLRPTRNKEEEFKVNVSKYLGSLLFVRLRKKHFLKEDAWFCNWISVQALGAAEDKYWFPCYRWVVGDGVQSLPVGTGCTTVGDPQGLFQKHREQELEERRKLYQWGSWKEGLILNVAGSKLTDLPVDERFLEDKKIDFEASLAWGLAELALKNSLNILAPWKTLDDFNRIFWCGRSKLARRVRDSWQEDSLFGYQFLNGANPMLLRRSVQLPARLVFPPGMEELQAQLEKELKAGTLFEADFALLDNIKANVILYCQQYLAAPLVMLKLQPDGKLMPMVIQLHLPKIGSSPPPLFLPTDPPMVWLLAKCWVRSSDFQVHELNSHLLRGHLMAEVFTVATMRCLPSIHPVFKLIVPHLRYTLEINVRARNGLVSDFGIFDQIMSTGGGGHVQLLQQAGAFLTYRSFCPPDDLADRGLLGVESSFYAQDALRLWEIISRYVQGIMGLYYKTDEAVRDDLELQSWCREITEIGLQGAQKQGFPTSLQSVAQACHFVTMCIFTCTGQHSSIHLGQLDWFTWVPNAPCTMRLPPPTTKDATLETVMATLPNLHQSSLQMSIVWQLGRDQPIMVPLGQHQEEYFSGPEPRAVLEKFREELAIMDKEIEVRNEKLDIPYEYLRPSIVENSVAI

[5] = biological target: T4, Neuropeptide Y receptor type 2 (Homo sapiens, UniProt P49146); assay type: cell membranes, Membrane; conditions: kan-ts; further: in other assays of this panel Not Active means under 50% inhibition at 10 µM
T4 sequence (P49146 whole entry): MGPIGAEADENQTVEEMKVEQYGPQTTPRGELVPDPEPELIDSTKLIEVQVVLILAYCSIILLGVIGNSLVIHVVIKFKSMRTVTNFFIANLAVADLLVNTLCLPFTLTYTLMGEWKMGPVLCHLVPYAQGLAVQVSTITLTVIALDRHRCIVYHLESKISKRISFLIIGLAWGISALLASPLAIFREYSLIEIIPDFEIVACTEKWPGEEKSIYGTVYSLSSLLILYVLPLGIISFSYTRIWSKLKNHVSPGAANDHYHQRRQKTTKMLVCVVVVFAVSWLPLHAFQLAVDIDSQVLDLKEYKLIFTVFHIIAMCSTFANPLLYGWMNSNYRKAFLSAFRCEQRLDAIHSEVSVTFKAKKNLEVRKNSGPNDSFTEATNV

Neutrophil elastase = biological target: T5, Neutrophil elastase (Homo sapiens, UniProt P08246); assay type: tissue-based;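 further: inhibition of neutrophil elastase enzyme activity, measured with a p-nitroanilide-linked peptide substrate; in other assays of this panel Not Active means under 50% inhibition at 10 µM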
T5 sequence (P08246 whole entry): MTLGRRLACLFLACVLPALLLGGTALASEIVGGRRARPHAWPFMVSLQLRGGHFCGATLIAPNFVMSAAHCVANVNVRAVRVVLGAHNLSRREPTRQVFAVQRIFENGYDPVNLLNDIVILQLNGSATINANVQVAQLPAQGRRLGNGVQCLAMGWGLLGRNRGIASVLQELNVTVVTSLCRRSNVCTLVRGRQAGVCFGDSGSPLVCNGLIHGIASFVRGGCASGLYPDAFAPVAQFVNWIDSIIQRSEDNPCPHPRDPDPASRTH

[6] = biological target: Protein kinase C alpha type (Homo sapiens, UniProt P17252); assay type: cell-based; conditions: sf9

Compound | IC50 ([1]; sf9) | IC50 [2] | Ki [2] | IC50 [3] | IC50 ([4]; read-out: IC50) | IC50 [5] | IC50 (Neutrophil elastase) | IC50 [6] | IC50 ([4]; reticulocytes) | IC50 [1] | Ki ([1]; read-out: Ki) | IC50 ([2]; read-out: IC50) | Ki ([2]; read-out: Ki) | IC50 ([1]; read-out: IC50) | Ki ([1]; sf9) | Ki [3] | Ki ([4]; reticulocytes) | Ki [5] | Ki (Neutrophil elastase) | Ki [6]
C[C@](N)(Cc1ccc(O)c(O)c1)C(=O)O [METHYLDOPA] | Not Active | Not Active | Not Active | Not Active | 2130 nM | Not Active | Not Active | Not Active | – | – | – | – | – | – | – | – | – | – | – | –
C[C@]12CCC(=O)C=C1CC[C@@H]1[C@@H]2CC[C@@]2(C)[C@H]1CC[C@]2(C)O [METHYLTESTOSTERONE] | Not Active | Not Active | Not Active | Not Active | – | Not Active | Not Active | Not Active | Not Active | – | – | – | – | – | – | – | – | – | – | –
Cc1ccccc1N1C(=O)c2cc(S(N)(=O)=O)c(Cl)cc2NC1C (centres undefined) [METOLAZONE] | Not Active | Not Active | Not Active | Not Active | – | Not Active | Not Active | Not Active | Not Active | – | – | – | – | – | – | – | – | – | – | –
COCCc1ccc(OCC(O)CNC(C)C)cc1 (centres undefined) [METOPROLOL] | Not Active | Not Active | Not Active | Not Active | – | Not Active | Not Active | Not Active | Not Active | – | – | – | – | – | – | – | – | – | – | –
CCn1cc(C(=O)O)c(=O)c2cc(F)c(N3CCNCC3)cc21 [NORFLOXACIN] | Not Active | Not Active | Not Active | Not Active | – | Not Active | Not Active | Not Active | Not Active | – | – | – | – | – | – | – | – | – | – | –
NC1=NC(=O)C(c2ccccc2)O1 (centres undefined) [PEMOLINE] | Not Active | Not Active | Not Active | Not Active | – | Not Active | Not Active | Not Active | Not Active | – | – | – | – | – | – | – | – | – | – | –
Nc1nc2c(ncn2CCC(CO)CO)c(=O)[nH]1 [PENCICLOVIR] | Not Active | Not Active | Not Active | Not Active | – | Not Active | Not Active | Not Active | Not Active | – | – | – | – | – | – | – | – | – | – | –
C=C(C)C1(O)OC(=O)C=C1OC (centres undefined) [PENICILLIC ACID] | Not Active | Not Active | Not Active | Not Active | – | Not Active | Not Active | Not Active | Not Active | – | – | – | – | – | – | – | – | – | – | –
CC1(C)S[C@@H]2[C@H](NC(=O)Cc3ccccc3)C(=O)N2[C@H]1C(=O)O [PENICILLIN G] | Not Active | Not Active | Not Active | Not Active | – | Not Active | Not Active | Not Active | Not Active | – | – | – | – | – | – | – | – | – | – | –
CCCN1C[C@H](CSC)C[C@@H]2c3cccc4[nH]cc(c34)C[C@H]21 [PERGOLIDE] | – | – | – | Not Active | – | Not Active | Not Active | Not Active | Not Active | 1410 nM | 205 nM | 3300 nM | 2930 nM | – | – | – | – | – | – | –
C1CCC(C(CC2CCCCN2)C2CCCCC2)CC1 (centres undefined) [PERHEXILINE] | Not Active | – | – | Not Active | – | Not Active | Not Active | Not Active | Not Active | – | – | 1060 nM | 939 nM | – | – | – | – | – | – | –
CCOc1ccc(NC(C)=O)cc1 [PHENACETIN] | Not Active | Not Active | Not Active | Not Active | – | Not Active | Not Active | Not Active | Not Active | – | – | – | – | – | – | – | – | – | – | –
CNNCc1ccc(C(=O)NC(C)C)cc1 [PROCARBAZINE] | Not Active | Not Active | Not Active | Not Active | – | Not Active | Not Active | Not Active | Not Active | – | – | – | – | – | – | – | – | – | – | –
CN(C)CCCN1c2ccccc2Sc2ccccc21 [PROMAZINE] | – | – | – | Not Active | – | Not Active | Not Active | Not Active | Not Active | – | 37 nM | 3220 nM | 2860 nM | 253 nM | – | – | – | – | – | –
CC(O)CO (centres undefined) [PROPYLENE GLYCOL] | Not Active | Not Active | Not Active | Not Active | – | Not Active | Not Active | Not Active | Not Active | – | – | – | – | – | – | – | – | – | – | –
CADMIUM ACETATE | Not Active | Not Active | Not Active | Not Active | – | Not Active | Not Active | Not Active | Not Active | – | – | – | – | – | Not Active | Not Active | Not Active | Not Active | Not Active | Not Active
LEAD (II) ACETATE | Not Active | Not Active | Not Active | Not Active | – | Not Active | Not Active | Not Active | Not Active | – | – | – | – | – | Not Active | Not Active | Not Active | Not Active | Not Active | Not Active
LIPOPOLYSACCHARIDE E. COLI O55:B5 | Not Active | Not Active | Not Active | Not Active | – | Not Active | Not Active | Not Active | Not Active | – | – | – | – | – | Not Active | Not Active | Not Active | Not Active | Not Active | Not Active
